Tested on: transglutaminase 1 (TG1) mRNA in human epidermal keratinocytes
Test: Expression of transglutaminase 1 (TG1) by differentiating keratinocytes (real time PCR of TG1 mRNA)
Assay type: cell-based
Settings: substances alone: retinol 1×10−10 M, TSA 10−9 M; 1.3 mM calcium; 72 hours; relative to non-treated cells
Description: This example illustrates how the HDAC inhibitor Trichostatin A and Retinol work synergistically. An in vitro cell culture of human primary keratinocytes has been chosen as test system. This in vitro cell culture model is useful to study differentiation processes and is able to simulate the in vivo situation in human skin (Poumay et al., 1999). To monitor differentiation processes in vitro and in vivo transglutaminase 1 is a well known marker molecule (Polakowska et al., 1999).
Epidermal keratinocytes were isolated from human foreskin biopsies and cultured in keratinocyte serum free medium (KSFM made by GIBCO) in a growth chamber with 37° C. and 5% CO2. At the second passage, cells were transferred to 6 well plates and allowed to reach approximately 50% surface confluence.
Retinol and TSA were solubilized in ethanol or ethanol/tetrahydrofuran respectively. Retinol solutions were handled under yellow light conditions only. […]
Seventy-two hours after the beginning of the treatment, cells were harvested and the RNA extracted. […] Relative quantification of TG1 mRNA transcript levels in control versus treatment cultures were determined using multiplexed real time PCR analysis. […]

| modulation of the terminal differentiation process in epidermal keratinocytes (TG1 mRNA) | Compound |
| --- | --- |
| only weak modulation | CC1=C(/C=C/C(C)=C/C=C/C(C)=C/CO)C(C)(C)CCC1 [Retinol] |
| only weak modulation | CC(/C=C/C(=O)NO)=C\[C@@H](C)C(=O)c1ccc(N(C)C)cc1 [TSA, Trichostatin A] |
